SMILES strings stand for the structures. Active and inactive are the calls of the source. The calls are words filed in the database; no cut-off is given here.

The values that follow come from ChEMBL document CHEMBL5143683, “Explorations of novel pyridine-pyrimidine hybrid phosphonate derivatives as aurora kinase inhibitors” (Bioorg Med Chem Lett, 2022).

In one data set the test system is A549. Briefly: Anticancer activity against human A549 cells assessed as reduction in cell viability measured after 24 hrs by MTT assay. Conditions: A549, 24 h. The format is functional, cell-based. (Tetrazolium assays rely on reduction of a dye to a coloured formazan, in cell work by metabolically active cells.)
For data set [1], the system named is HepG2. Briefly: Anticancer activity against human HepG2 cells assessed as reduction in cell viability measured after 24 hrs by MTT assay. It is filed as functional, cell-based. Conditions: HepG2, 24 h.
Data set [2] concerns HeLa. Briefly: Anticancer activity against human HeLa cells assessed as reduction in cell viability measured after 24 hrs by MTT assay. It is filed as functional, cell-based.
In another data set the test system is MCF7. Briefly: Anticancer activity against human MCF7 cells assessed as reduction in cell viability measured after 24 hrs by MTT assay. The format is functional, cell-based. The conditions noted are these: MCF7, 24 h.
Another data set deals with HL-60. The experiment in a line: Anticancer activity against human HL-60 cells assessed as reduction in cell viability measured after 24 hrs by MTT assay. It is filed as functional, cell-based. Conditions: HL-60, 24 h.
Data set [3] in a line: Cytotoxicity against human L02 cells assessed as reduction in cell viability measured after 24 hrs by MTT assay. It is filed as toxicity, cell-based.
A short description of data set [4]: Selectivity index, ratio of IC50 for human L02 cells to IC50 for human Hep-G2 cells. The format is toxicity. The conditions noted are these: L02 cells and Hep-G2 cells, read-out: Ratio IC50.
The target of the next data set is T1, Aurora kinase A (Homo sapiens, UniProt O14965).
T1 sequence (O14965 whole entry): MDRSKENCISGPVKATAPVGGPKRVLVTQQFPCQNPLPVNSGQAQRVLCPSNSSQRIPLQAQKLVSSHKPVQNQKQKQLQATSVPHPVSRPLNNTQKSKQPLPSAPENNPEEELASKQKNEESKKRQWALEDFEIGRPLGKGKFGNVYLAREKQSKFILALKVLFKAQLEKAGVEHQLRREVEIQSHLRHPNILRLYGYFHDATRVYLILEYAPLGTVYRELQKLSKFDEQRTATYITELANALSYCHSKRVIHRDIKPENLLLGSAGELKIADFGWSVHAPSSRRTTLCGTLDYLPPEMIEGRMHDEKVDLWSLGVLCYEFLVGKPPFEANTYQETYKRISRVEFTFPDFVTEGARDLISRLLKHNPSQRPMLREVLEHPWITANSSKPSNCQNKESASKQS
The experiment in a line: Inhibition of Aurora A (unknown origin) using kemptide acetate as substrate measured after 30 mins by kinase-glo luminescence assay. For orientation: Kinase-Glo measures the ATP left after a reaction by luminescence.

A further data set addresses Aurora kinase B (Homo sapiens, UniProt Q96GD4). The experiment in a line: Inhibition of Aurora B (unknown origin) using kemptide acetate as substrate measured after 30 mins by kinase-glo luminescence assay.
Data set [5] deals with HepG2. The experiment in a line: Induction of morphological changes in human HepG2 cells assessed as cell detachment at IC50 by inverted microscopy. The format is functional, cell-based.
In data set [6] the test system is HepG2. The experiment in a line: Induction of morphological changes in human HepG2 cells assessed as […] at IC50 by inverted microscopy. The format is functional, cell-based.
Data set [7] concerns HepG2. Briefly: Induction of morphological changes in human HepG2 cells assessed as cell shrinkage at IC50 by inverted microscopy. The format is functional, cell-based.
Data set [8] relates to HepG2. The experiment in a line: Induction of morphological changes in human HepG2 cells assessed as reduction in number of viable cells at IC50 by inverted microscopy. It is filed as functional, cell-based.
The test system of data set [9] is HeLa. Briefly: Induction of morphological changes in human HeLa cells assessed as cell detachment at IC50 by inverted microscopy. It is filed as functional, cell-based.
In data set [10] the test system is HeLa. Briefly: Induction of morphological changes in human HeLa cells assessed as […] at IC50 by inverted microscopy. The format is functional, cell-based.
The subject of data set [11] is HeLa. The experiment in a line: Induction of morphological changes in human HeLa cells assessed as cell shrinkage at IC50 by inverted microscopy. It is filed as functional, cell-based.
Data set [12] relates to HeLa. The experiment in a line: Induction of morphological changes in human HeLa cells assessed as reduction in number of viable cells at IC50 by inverted microscopy. The format is functional, cell-based.

Chain of Aurora kinase B (Q96GD4 whole entry): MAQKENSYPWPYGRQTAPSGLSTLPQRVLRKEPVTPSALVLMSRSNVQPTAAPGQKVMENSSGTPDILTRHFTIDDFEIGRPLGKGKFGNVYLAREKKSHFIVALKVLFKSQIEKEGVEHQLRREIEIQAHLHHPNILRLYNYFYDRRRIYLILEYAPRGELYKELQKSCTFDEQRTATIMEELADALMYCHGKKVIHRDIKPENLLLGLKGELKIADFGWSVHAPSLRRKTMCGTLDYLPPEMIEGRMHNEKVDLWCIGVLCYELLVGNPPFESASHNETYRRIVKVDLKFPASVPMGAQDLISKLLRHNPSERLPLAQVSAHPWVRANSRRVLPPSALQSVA

`Cc1cc(Nc2cc(N3CCN(C)CC3)nc(Sc3ccc(NC(=O)C4CC4)cc3)n2)n[nH]1` [TOZASERTIB]: the 50% inhibitory concentration (IC50) – broadly, the concentration at which inhibition is half-maximal – in the data set with A549 worked out at 15.1 µM; in the data set on HepG2 [1], 18 µM; in the data set on HeLa [2], 6.24 µM; in the data set with MCF7, 1.02 µM; in the data set on HL-60, 1.88 µM.
In the case of `CCOP(=O)(OCC)C(Nc1ccc(C)c(Nc2nccc(-c3cccnc3)n2)c1)c1scnc1C` (stereo not given), the IC50 was determined as 13.8 µM in the data set on A549; 18 µM in the data set on HepG2 [1]; 6.02 µM with HeLa [2]; 1.55 µM with MCF7; 2.32 µM in the data set on HL-60; 0.033 µM against Aurora kinase A. On Aurora kinase B, this compound registered an IC50 of 0.015 µM. Moreover, in data set [3], the half-inhibitory concentration (IC50) at 24 h stood at 74.9 µM. Also, in data set [4], the selectivity ratio came out at 5.5.
In the case of `CCOP(=O)(OCC)C(Nc1ccc(C)c(Nc2nccc(-c3cccnc3)n2)c1)c1ccc(Cl)c(Cl)c1` (stereo not given), the IC50 with A549 came to 25 µM; in the data set with HepG2 [1], 25 µM; with HeLa [2] it was 12.9 µM; with MCF7 it was 7.07 µM; with HL-60, 8.24 µM.
Consider `CCOP(=O)(OCC)C(Nc1ccc(C)c(Nc2nccc(-c3cccnc3)n2)c1)N1CCCCC1` (stereo not given), for which the IC50 with A549 was found to be 32.6 µM; with HepG2 [1], 34 µM; in the data set with HeLa [2] it was 21.1 µM; in the data set on MCF7 it was 6.86 µM; with HL-60, 8.18 µM.
For `CCOP(=O)(OCC)C(Nc1ccc(C)c(Nc2nccc(-c3cccnc3)n2)c1)N1CCOCC1` (stereo not given) the same measures were 29.2 µM, 30.5 µM, 20.3 µM, 6.82 µM and 7.65 µM.
In the case of `CCOP(=O)(OCC)C(Nc1ccc(C)c(Nc2nccc(-c3cccnc3)n2)c1)c1ccc(OC)cc1` (stereo not given), the IC50 in the data set on A549 worked out at 24.3 µM; with HepG2 [1], 24.9 µM; with HeLa [2], 13 µM; with MCF7 it was 6.42 µM; in the data set on HL-60 it was 7.87 µM.
As for `CCOP(=O)(OCC)C(Nc1ccc(C)c(Nc2nccc(-c3cccnc3)n2)c1)c1ccn[nH]1` (stereo not given), the 50% inhibitory concentration (IC50) with A549 turned out to be 15.1 µM; in the data set with HepG2 [1], 18.6 µM; in the data set on HeLa [2], 6.88 µM; with MCF7, 2.36 µM; in the data set with HL-60, 3.01 µM; on Aurora kinase A, 0.015 µM. On Aurora kinase B, this compound gave an IC50 of 0.012 µM. For the same compound, the 50% inhibitory concentration (IC50) at 24 h in data set [3] was found to be 83.2 µM. Further, the selectivity ratio in [4] stood at 5.5.
On to `CCOP(=O)(OCC)C(Nc1ccc(C)c(Nc2nccc(-c3cccnc3)n2)c1)c1ccc[nH]1` (stereo not given), for which the IC50 with A549 was determined as 13.6 µM; in the data set with HepG2 [1] it was 17.5 µM; in the data set on HeLa [2], 5.81 µM; in the data set with MCF7, 1.59 µM; in the data set on HL-60 it was 2.11 µM; against Aurora kinase A, 0.042 µM. In addition, on Aurora kinase B, 0.022 µM corresponded to half-maximal inhibition (IC50). Moreover, in data set [3], the concentration for half-maximal inhibition (IC50) at 24 h amounted to 95.3 µM. The selectivity ratio in data set [4] was found to be 7. Moreover, the outcome in the data set on HepG2 [5], in the data set on HepG2 [6], with HepG2 [7], in the data set on HepG2 [8], in the data set with HeLa [9] and in the data set on HeLa [10] was Active. In addition, the outcome with HeLa [11] and in the data set with HeLa [12] was Active.
With `CCOP(=O)(OCC)C(Nc1ccc(C)c(Nc2nccc(-c3cccnc3)n2)c1)c1ccc(Cl)cc1` (stereo not given), the 50% inhibitory concentration (IC50) worked out at 24 µM in the data set on A549; 24.8 µM in the data set on HepG2 [1]; 12 µM in the data set on HeLa [2]; 6.09 µM in the data set on MCF7; 7.19 µM with HL-60.
For `CCOP(=O)(OCC)C(Nc1ccc(C)c(Nc2nccc(-c3cccnc3)n2)c1)c1ccco1` (stereo not given), the IC50 in the data set on A549 worked out at 15.8 µM; in the data set with HepG2 [1] it was 18.9 µM; with HeLa [2] it was 7.16 µM; with MCF7 it was 3.36 µM; in the data set with HL-60, 3.78 µM.
For `CCOP(=O)(OCC)C(Nc1ccc(C)c(Nc2nccc(-c3cccnc3)n2)c1)c1ccsc1` (stereo not given) the same measures were 15.7 µM, 18.8 µM, 7.01 µM, 2.46 µM and 2.99 µM.
On to `CCOP(=O)(OCC)C(Nc1ccc(C)c(Nc2nccc(-c3cccnc3)n2)c1)c1ccncc1` (stereo not given), for which the half-maximal inhibitory concentration (IC50) in the data set on A549 worked out at 28.1 µM; with HepG2 [1] it was 28.5 µM; with HeLa [2], 18.1 µM; with MCF7 it was 6.38 µM; with HL-60, 7.22 µM.
For `CCOP(=O)(OCC)C(Nc1ccc(C)c(Nc2nccc(-c3cccnc3)n2)c1)c1ccc(O)cc1` (stereo not given) the same measures were 21.6 µM, 21.6 µM, 10.4 µM, 5.67 µM and 5.98 µM.
Take `CCOP(=O)(OCC)C(Nc1ccc(C)c(Nc2nccc(-c3cccnc3)n2)c1)c1ccc(N)cc1` (stereo not given): the IC50 turned out to be 21.4 µM in the data set on A549; 21.5 µM in the data set with HepG2 [1]; 10.2 µM in the data set on HeLa [2]; 5.32 µM in the data set with MCF7; 6.39 µM with HL-60.
On to `CCOP(=O)(OCC)C(Nc1ccc(C)c(Nc2nccc(-c3cccnc3)n2)c1)c1ccc(F)cc1` (stereo not given), for which the IC50 in the data set on A549 turned out to be 24.1 µM; with HepG2 [1], 24.9 µM; in the data set on HeLa [2], 12.3 µM; with MCF7 it was 6.11 µM; in the data set on HL-60 it was 7.23 µM.
Consider `CCOP(=O)(OCC)C(Nc1ccc(C)c(Nc2nccc(-c3cccnc3)n2)c1)c1ccc(C)cc1` (stereo not given), for which the IC50 turned out to be 22 µM in the data set with A549; 21.9 µM in the data set on HepG2 [1]; 10.6 µM with HeLa [2]; 5.96 µM with MCF7; 6.75 µM with HL-60.
Consider `CCOP(=O)(OCC)C(Nc1ccc(C)c(Nc2nccc(-c3cccnc3)n2)c1)c1ccccc1` (stereo not given), for which the IC50 stood at 40.2 µM in the data set on A549; 42.1 µM with HepG2 [1]; 32.1 µM in the data set with HeLa [2]; 8.88 µM with MCF7; 9.02 µM with HL-60.
Take `CCOP(=O)(OCC)C(Nc1ccc(C)c(Nc2nccc(-c3cccnc3)n2)c1)c1c[nH]c2ccccc12` (stereo not given): the concentration for half-maximal inhibition (IC50) in the data set on A549 came out at 18.2 µM; with HepG2 [1], 19.9 µM; in the data set with HeLa [2], 8.94 µM; in the data set on MCF7, 4.66 µM; in the data set on HL-60, 4.92 µM.
